Measured values from article PMC7288052 (Molecules, 2020).
Read-outs that look alike come from different tables or passages of the source. Blank lines part the entries; values can stand above or below the molecule they belong to. Non-standard residues stand in square brackets, D forms with d. Residues, ends and D or L forms follow the SMILES beside them.

How the values were obtained:
δ-opioid receptor (δOR) = target: T1, δ-opioid receptor (δOR) (Rattus norvegicus, UniProt P33533); assay: competitive radioligand displacement assay, δOR, [3H]DELT II, rat brain homogenate membranes; format: binding; conditions: for δOR affinity in words: [3H]DELT II displacement, compared to parent TAPP
T1 construct: from tissue; host or cells: rat brain homogenate (membrane fractions)
Method: (§1) The determinations were performed by a competitive radioligand displacement assay with selective radioligands.
(§2) Membrane fractions of rat brain Homogenate were incubated at 25 °C for 60 mins in the presence of radioligands (0.5 nM) specific for each receptor (μOR: [^3H]DAMGO and δOR: [^3H]DELT II, obtained as a generous gift from Prof. Géza Tóth) and the increasing concentrations of the tested compounds (10^−11 up to 10^−5 M, each concentration in duplicate). For measuring non-specific binding, 10 μM naloxone was used as the competitor. The assay buffer contained 50mM Tris-HCl (pH 7.4), bovine serum albumin (0.1 mg/mL), bacitracin (30 μg/mL), bestatin (30 μM), captopril (10 μM), and phenylmethylsulfonyl fluoride (0.1 mM) in the total reaction volume of 1 mL. After the incubation, the binding reactions were terminated by rapid filtration with M-24 Cell Harvester (Brandel/USA) through GF/B Whatman glass fibre strips. The filters were pre-soaked with 0.5% PEI before harvesting in order to minimize non-specific binding. Filter discs were placed separately in 24-well plates and immersed with the Optiphase Supermix scintillation cocktail (Perkin Elmer, Waltham, MA, USA). Radioactivity was measured using a MicroBeta LS Trilux scintillation counter (PerkinElmer, Waltham, MA, USA).

[1] = stability against proteolysis in human plasma by HPLC/MS; format: in vitro ADME; conditions: for remaining at 96 h, 350 µM: read-out: C96h, percent of the initial peptide concentration remaining after 96 h; for site of the first proteolytic cleavage: HPLC/MS; for stability in human plasma in words: up to 96 h, compared to TAPP; for half-life / half-life at […]: read-out: half-life time (T1/2) in human plasma (converted)
Method: The results are graphically presented in Figure 7 and the representative HPLC chromatograms are given in Figures SM-STAB-1 to SM-STAB-22 in Supplementary Materials. […] After 96 h, more than 90% of the initial peptide concentration (C96h > 90%) remained in the test sample. This is in marked contrast to endomorphin-2 (Tyr-Pro-Phe-Phe-NH2) that, in the very same conditions, is rapidly degraded with half-life time (T1/2) of only 30 min.
The determination of plasma stability was performed according to a previously described protocol with minor modifications. Human plasma for testing was obtained from a healthy donor. […] Portions of the plasma (100 μL) were dispensed into Eppendorf tubes and equilibrated at 37 ± 1 °C for 5 min, before adding 100 μL of the stock solution of each tested peptide. Samples of the test solution were taken and analyzed at several time points (0, 1, 2, 3, 4, 5, 6, 12, 24, 48, and 96 h of the experiment).
In order to precipitate the plasma proteins, 400 μL ethanol (98%) was added to the samples, whereafter shaking (1 min) and cooling in 4 °C (5 min) followed. Subsequently, the samples were centrifuged for 10 min at 2000 g. The supernatant (20 μL) was immediately analyzed by HPLC/MS using the LCMS-2010EV Shimadzu apparatus with a Phenomenex Jupiter 4u Proteo 90A, C12 (25 cm × 2 mm × 4 μm) column. The chromatography was performed in reversed-phase system (solvents A: 0.05% FA in water, B: 0.05% FA in acetonitrile) with a non-linear gradient was used (1–31% B in 20 min followed by an increase to 97% B from 20 to 30 min) at a solvent flow of 0.5 mL/min. The activity of the plasma was confirmed by using endomorphin-2 ([…]) as a control sample. The results of the HPLC/MS analyses allowed for quantitative determination of the concentration changes of the tested peptides. Furthermore, it was possible to indicate the location of the first proteolytic cleavage.

μ-opioid receptor (μOR) = target: T2, μ-opioid receptor (μOR) (Rattus norvegicus, UniProt P33535); assay: competitive radioligand displacement assay, μOR, [3H]DAMGO, rat brain homogenate membranes; format: binding; conditions: for decrease in μOR affinity compared to the parent TAPP: ratio of IC50 versus TAPP
T2 construct: from tissue; host or cells: rat brain homogenate (membrane fractions)
Method: as §1, §2

[2] = Human plasma for testing was obtained from a healthy donor; conditions: 37 ± 1 °C, up to 96 h
[3] = radioligand 0.5 nM [3H]DAMGO, rat brain homogenate, mean of three determinations in duplicate, read-out: IC50 ± S.E.M. μOR
[4] = radioligand 0.5 nM [3H]DELT II, rat brain homogenate, mean of three determinations in duplicate, read-out: IC50 δOR

T2 sequence (P33535 whole entry): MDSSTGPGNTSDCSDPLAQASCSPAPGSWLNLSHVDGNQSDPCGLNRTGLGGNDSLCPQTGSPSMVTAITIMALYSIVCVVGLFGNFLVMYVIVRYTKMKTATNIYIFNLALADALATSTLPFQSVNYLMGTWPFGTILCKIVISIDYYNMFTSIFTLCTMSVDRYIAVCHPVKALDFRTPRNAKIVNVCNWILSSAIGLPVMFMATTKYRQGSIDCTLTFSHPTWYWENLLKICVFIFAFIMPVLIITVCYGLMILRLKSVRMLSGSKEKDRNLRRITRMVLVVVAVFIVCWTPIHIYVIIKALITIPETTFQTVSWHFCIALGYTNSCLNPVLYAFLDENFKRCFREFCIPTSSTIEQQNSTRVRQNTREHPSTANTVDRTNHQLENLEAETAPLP
T1 sequence (P33533 whole entry): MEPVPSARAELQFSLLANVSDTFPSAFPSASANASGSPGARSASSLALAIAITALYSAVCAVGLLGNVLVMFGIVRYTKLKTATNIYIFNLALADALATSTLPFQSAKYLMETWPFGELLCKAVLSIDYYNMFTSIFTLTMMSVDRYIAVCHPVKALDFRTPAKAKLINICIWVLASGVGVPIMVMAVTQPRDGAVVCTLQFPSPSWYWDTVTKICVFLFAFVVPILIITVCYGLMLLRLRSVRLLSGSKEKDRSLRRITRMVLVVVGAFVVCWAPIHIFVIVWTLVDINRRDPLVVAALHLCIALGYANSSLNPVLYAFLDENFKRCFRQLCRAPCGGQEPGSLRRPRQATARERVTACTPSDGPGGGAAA

Molecule: C[C@@H](NC(=O)[C@@H](N)Cc1ccc(O)cc1)C(=O)N[C@@H](Cc1ccccc1)C(=O)N[C@@H](Cc1ccccc1)C(N)=O [compound 1, H-Tyr-D-Ala-Phe-Phe-NH2, reference compound] (HELM PEPTIDE1{Y.[dA].F.F.[am]}$$$$V2.0)
- IC50 (δ-opioid receptor (δOR)): 0.616 µM
- δOR affinity in words (δ-opioid receptor (δOR)): low binding
- remaining at 96 h, 350 µM ([1]; 37 °C): > 90%
- site of the first proteolytic cleavage [1]: C-terminal amide (deamidation)
- stability in human plasma in words [1]: resistant to proteolysis

Molecule: C[C@@H](NC(=O)[C@@H](CN)Cc1ccc(O)cc1)C(=O)N[C@@H](Cc1ccccc1)C(=O)N[C@@H](Cc1ccccc1)C(N)=O [compound 8, [(R)-β^2hTyr^1]-TAPP*]
- IC50 (μ-opioid receptor (μOR); [3]): 0.0776 ± 0.0024 µM
- decrease in μOR affinity compared to the parent TAPP (μ-opioid receptor (μOR)): about 15 fold
- δOR affinity in words (δ-opioid receptor (δOR)): did not exhibit any measurable binding
- IC50 (δ-opioid receptor (δOR); [4]): > 10 µM
- site of the first proteolytic cleavage [1]: C-terminal amide (deamidation)
- stability in human plasma in words [1]: stability similar to TAPPs

Molecule: C[C@@H](NC(=O)[C@@H](CN)Cc1cccc(O)c1)C(=O)N[C@@H](Cc1ccccc1)C(=O)N[C@@H](Cc1ccccc1)C(N)=O [compound 9, [(R)-β^2h-m-Tyr^1]-TAPP*]
- IC50 (μ-opioid receptor (μOR); [3]): 0.0489 ± 0.0023 µM
- δOR affinity in words (δ-opioid receptor (δOR)): did not exhibit any measurable binding
- IC50 (δ-opioid receptor (δOR); [4]): > 10 µM
- site of the first proteolytic cleavage [1]: C-terminal amide (deamidation)
- stability in human plasma in words [1]: stability similar to TAPPs

Molecule: C[C@@H](CNC(=O)[C@@H](N)Cc1ccc(O)cc1)C(=O)N[C@@H](Cc1ccccc1)C(=O)N[C@@H](Cc1ccccc1)C(N)=O [compound 10, [(S)-β^2hAla^2]-TAPP]
- half-life ([1]; 37 °C): ~4.5 h

Molecule: C[C@@H](NC(=O)[C@@H](N)Cc1ccc(O)cc1)C(=O)NC[C@@H](Cc1ccccc1)C(=O)N[C@@H](Cc1ccccc1)C(N)=O [compound 11, [(R)-β^2hPhe^3]-TAPP]
- IC50 (μ-opioid receptor (μOR)): 0.0954 ± 0.0025 µM
- decrease in μOR affinity compared to the parent TAPP (μ-opioid receptor (μOR)): more than 10 fold
- IC50 (δ-opioid receptor (δOR)): 0.794 µM
- δOR affinity in words (δ-opioid receptor (δOR)): at a level similar to the parent TAPP
- half-life at […] ([1]; 37 °C): ~40 h

Molecule: C[C@@H](NC(=O)[C@@H](N)Cc1ccc(O)cc1)C(=O)N[C@@H](Cc1ccccc1)C(=O)NC[C@@H](Cc1ccccc1)C(N)=O [compound 12, [(R)-β^2hPhe^4]-TAPP]
- IC50 (μ-opioid receptor (μOR)): 0.0019 ± 0.0024 µM
- IC50 (δ-opioid receptor (δOR)): 0.708 µM
- δOR affinity in words (δ-opioid receptor (δOR)): at a level similar to the parent TAPP
- remaining at 96 h, 350 µM ([1]; 37 °C): 55%

Molecule: C[C@@H](NC(=O)[C@H](CN)Cc1ccc(O)cc1)C(=O)N[C@@H](Cc1ccccc1)C(=O)N[C@@H](Cc1ccccc1)C(N)=O [compound 13, [(S)-β^2hTyr^1]-TAPP*]
- IC50 (μ-opioid receptor (μOR); [3]): 0.339 ± 0.0051 µM
- δOR affinity in words (δ-opioid receptor (δOR)): did not exhibit any measurable binding
- IC50 (δ-opioid receptor (δOR); [4]): > 10 µM
- site of the first proteolytic cleavage [1]: C-terminal amide (deamidation)
- stability in human plasma in words [1]: stability similar to TAPPs

Molecule: C[C@@H](NC(=O)[C@H](CN)Cc1cccc(O)c1)C(=O)N[C@@H](Cc1ccccc1)C(=O)N[C@@H](Cc1ccccc1)C(N)=O [compound 14, [(S)-β^2h-m-Tyr^1]-TAPP*]
- IC50 (μ-opioid receptor (μOR); [3]): 0.0112 ± 0.0063 µM
- δOR affinity in words (δ-opioid receptor (δOR)): did not exhibit any measurable binding
- IC50 (δ-opioid receptor (δOR); [4]): > 10 µM
- site of the first proteolytic cleavage [1]: C-terminal amide (deamidation)
- stability in human plasma in words [1]: stability similar to TAPPs

Molecule: C[C@H](CNC(=O)[C@@H](N)Cc1ccc(O)cc1)C(=O)N[C@@H](Cc1ccccc1)C(=O)N[C@@H](Cc1ccccc1)C(N)=O [compound 15, [(R)-β^2hAla^2]-TAPP]
- half-life ([1]; 37 °C): ~4.5 h

Molecule: C[C@@H](NC(=O)[C@@H](N)Cc1ccc(O)cc1)C(=O)NC[C@H](Cc1ccccc1)C(=O)N[C@@H](Cc1ccccc1)C(N)=O [compound 16, [(S)-β^2hPhe^3]-TAPP]
- IC50 (μ-opioid receptor (μOR)): 0.0155 ± 0.0025 µM
- IC50 (δ-opioid receptor (δOR)): 0.89 µM
- δOR affinity in words (δ-opioid receptor (δOR)): at a level similar to the parent TAPP
- remaining at 96 h, 350 µM ([1]; 37 °C): > 65%

Molecule: C[C@@H](NC(=O)[C@@H](N)Cc1ccc(O)cc1)C(=O)N[C@@H](Cc1ccccc1)C(=O)NC[C@H](Cc1ccccc1)C(N)=O [compound 17, [(S)-β^2hPhe^4]-TAPP]
- IC50 (μ-opioid receptor (μOR)): 0.0078 ± 0.004 µM
- IC50 (δ-opioid receptor (δOR)): 0.417 µM
- δOR affinity in words (δ-opioid receptor (δOR)): slight improvement in δOR affinity when compared to the parent peptide
- remaining at 96 h, 350 µM ([1]; 37 °C): ~90%
- stability in human plasma in words [1]: equally resistant to proteolysis as the parent

Molecule: NC(=O)[C@H](Cc1ccccc1)NC(=O)[C@H](Cc1ccccc1)NC(=O)[C@@H]1CCCN1C(=O)[C@@H](N)Cc1ccc(O)cc1 [endomorphin-2, Tyr-Pro-Phe-Phe-NH2, reference compound]
- half-life at […] ([1]; same conditions, control sample): 0.5 h

Molecule: H-Y[dA]FF-NH2
- cleaved bond [2]: Phe4-NH2, first_seen

- cleaved bond [2]: Phe4-NH2, first_seen
Molecule: [(R)-β^2h-m-Tyr^1]-TAPP*

- cleaved bond [2]: Tyr1-(R)-β^2hAla2, first_seen
Molecule: [(R)-β^2hAla^2]-TAPP

- cleaved bond [2]: Tyr1-D-Ala2, first_seen
Molecule: [(R)-β^2hPhe^3]-TAPP

- cleaved bond [2]: Tyr1-D-Ala2, first_seen
Molecule: [(R)-β^2hPhe^4]-TAPP

- cleaved bond [2]: Phe4-NH2, first_seen
Molecule: [(R)-β^2hTyr^1]-TAPP*

- cleaved bond [2]: Phe4-NH2, first_seen
Molecule: [(S)-β^2h-m-Tyr^1]-TAPP*

- cleaved bond [2]: Tyr1-(S)-β^2hAla2, first_seen
Molecule: [(S)-β^2hAla^2]-TAPP

- cleaved bond [2]: Tyr1-D-Ala2, first_seen
Molecule: [(S)-β^2hPhe^3]-TAPP

- cleaved bond [2]: Tyr1-D-Ala2, first_seen
Molecule: [(S)-β^2hPhe^4]-TAPP

- cleaved bond [2]: Phe4-NH2, first_seen
Molecule: [(S)-β^2hTyr^1]-TAPP *
